Data from patent US5571807A, “1,5 benzothiazepinone dervatives their preparation and pharmaceutical use” (Istituto Luso Farmaco d'Italia S.p.A., priority 1990, dated 1996).
Counter-ions that a name gives are not always drawn.

What was measured:
[1] = target: 3H-diltiazem binding sites in the cardiac tissue (Homo sapiens, UniProt Q13936); test: biochemical; settings: displacement of 3H-diltiazem, read-out: receptorial binding (pIC50) (converted)
[2] = target: rabbit isolated atrium (Oryctolagus cuniculus, UniProt P15381); test: cell-based; settings: inhibition of tonic contraction; read-out: rabbit isolated atrium (pA2) (converted)
[3] = system: vasopressine-induced angina in the rat; test: Vasopressine-induced angina in the rat; type: in vivo; settings: for ED50: iv, read-out: angina vasopressine test rat (iv) ED50
[4] = Pharmacokinetic studies in the conscious incannulated rat; settings: in vivo, po, 50 mg/kg/os, read-out: pharmacokinetics in the rat t 1/2
[5] = humans; cited from earlier work

Chain of 3H-diltiazem binding sites in the cardiac tissue (Q13936 whole entry): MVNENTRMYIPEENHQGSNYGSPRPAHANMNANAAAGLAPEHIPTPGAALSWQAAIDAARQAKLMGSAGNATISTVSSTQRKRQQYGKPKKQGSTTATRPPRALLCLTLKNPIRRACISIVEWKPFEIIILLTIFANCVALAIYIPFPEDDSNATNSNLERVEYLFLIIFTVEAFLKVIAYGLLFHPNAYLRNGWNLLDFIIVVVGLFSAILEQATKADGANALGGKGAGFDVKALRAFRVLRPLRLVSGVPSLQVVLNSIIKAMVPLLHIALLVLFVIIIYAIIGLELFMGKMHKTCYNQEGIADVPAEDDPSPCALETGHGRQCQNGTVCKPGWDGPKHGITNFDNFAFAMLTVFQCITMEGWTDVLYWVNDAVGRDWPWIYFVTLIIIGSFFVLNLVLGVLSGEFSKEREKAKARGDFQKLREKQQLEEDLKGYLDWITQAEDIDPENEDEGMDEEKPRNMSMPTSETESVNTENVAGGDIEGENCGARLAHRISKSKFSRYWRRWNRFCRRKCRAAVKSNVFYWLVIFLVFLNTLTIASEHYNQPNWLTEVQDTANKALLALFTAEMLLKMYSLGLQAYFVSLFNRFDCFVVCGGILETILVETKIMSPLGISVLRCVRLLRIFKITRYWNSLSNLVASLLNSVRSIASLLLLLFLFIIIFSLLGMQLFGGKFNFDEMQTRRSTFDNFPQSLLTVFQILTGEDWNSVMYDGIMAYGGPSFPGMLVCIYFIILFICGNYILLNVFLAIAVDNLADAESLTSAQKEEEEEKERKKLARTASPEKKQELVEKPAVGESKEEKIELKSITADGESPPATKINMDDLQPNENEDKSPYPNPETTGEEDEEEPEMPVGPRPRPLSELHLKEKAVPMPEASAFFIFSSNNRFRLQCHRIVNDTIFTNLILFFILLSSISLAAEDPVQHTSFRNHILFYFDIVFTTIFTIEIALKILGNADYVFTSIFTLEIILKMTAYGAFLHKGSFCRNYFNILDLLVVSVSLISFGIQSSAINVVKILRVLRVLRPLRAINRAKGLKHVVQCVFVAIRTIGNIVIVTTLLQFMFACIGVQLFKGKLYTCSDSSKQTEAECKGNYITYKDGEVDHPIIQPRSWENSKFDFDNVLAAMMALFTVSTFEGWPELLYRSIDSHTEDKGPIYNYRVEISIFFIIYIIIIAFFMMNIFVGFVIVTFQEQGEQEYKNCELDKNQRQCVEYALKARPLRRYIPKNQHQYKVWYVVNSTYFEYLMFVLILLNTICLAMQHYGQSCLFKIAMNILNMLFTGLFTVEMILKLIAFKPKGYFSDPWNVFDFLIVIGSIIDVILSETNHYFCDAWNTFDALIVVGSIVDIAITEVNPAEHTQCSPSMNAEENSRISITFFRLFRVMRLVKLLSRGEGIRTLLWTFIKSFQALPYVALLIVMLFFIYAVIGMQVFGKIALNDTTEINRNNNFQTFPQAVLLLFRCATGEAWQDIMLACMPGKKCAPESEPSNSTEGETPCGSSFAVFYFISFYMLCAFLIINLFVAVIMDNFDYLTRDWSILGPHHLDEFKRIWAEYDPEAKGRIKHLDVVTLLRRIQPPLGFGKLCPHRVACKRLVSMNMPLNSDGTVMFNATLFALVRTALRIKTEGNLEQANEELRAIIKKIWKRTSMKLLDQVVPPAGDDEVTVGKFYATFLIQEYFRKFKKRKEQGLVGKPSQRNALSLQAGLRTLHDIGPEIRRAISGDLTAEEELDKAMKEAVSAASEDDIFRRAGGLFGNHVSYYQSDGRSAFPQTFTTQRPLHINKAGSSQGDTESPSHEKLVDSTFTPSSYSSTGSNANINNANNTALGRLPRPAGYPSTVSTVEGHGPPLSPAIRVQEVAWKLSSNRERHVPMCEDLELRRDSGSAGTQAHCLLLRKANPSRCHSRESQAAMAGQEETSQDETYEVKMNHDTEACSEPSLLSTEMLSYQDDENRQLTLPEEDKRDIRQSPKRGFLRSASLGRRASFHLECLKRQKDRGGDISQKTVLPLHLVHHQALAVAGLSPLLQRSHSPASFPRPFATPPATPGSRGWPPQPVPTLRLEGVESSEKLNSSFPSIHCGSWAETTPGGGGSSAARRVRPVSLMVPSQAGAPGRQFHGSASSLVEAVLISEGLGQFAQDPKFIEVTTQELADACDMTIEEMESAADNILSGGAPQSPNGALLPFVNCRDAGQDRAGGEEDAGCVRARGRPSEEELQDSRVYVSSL
Chain of 3H-diltiazem binding sites in the cardiac tissue (Q08289 whole entry partner): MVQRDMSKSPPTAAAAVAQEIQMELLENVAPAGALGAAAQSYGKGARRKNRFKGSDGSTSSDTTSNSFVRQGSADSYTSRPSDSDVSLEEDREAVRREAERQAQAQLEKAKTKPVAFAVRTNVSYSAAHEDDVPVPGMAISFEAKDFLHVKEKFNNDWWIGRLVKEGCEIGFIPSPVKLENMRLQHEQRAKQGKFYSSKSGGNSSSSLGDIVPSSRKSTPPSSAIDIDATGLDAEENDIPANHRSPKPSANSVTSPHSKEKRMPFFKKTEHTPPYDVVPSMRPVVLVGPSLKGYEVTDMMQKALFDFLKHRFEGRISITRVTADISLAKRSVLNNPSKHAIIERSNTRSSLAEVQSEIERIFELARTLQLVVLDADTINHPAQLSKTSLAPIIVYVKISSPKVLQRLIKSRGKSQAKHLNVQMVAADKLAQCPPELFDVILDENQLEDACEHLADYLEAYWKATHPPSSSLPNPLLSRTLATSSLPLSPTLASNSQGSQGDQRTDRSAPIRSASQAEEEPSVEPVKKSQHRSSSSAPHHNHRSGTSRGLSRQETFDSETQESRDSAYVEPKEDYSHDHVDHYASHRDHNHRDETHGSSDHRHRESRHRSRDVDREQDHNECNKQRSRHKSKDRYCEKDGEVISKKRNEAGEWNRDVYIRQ
Chain of 3H-diltiazem binding sites in the cardiac tissue (P54289 25-957 partner limits assumed): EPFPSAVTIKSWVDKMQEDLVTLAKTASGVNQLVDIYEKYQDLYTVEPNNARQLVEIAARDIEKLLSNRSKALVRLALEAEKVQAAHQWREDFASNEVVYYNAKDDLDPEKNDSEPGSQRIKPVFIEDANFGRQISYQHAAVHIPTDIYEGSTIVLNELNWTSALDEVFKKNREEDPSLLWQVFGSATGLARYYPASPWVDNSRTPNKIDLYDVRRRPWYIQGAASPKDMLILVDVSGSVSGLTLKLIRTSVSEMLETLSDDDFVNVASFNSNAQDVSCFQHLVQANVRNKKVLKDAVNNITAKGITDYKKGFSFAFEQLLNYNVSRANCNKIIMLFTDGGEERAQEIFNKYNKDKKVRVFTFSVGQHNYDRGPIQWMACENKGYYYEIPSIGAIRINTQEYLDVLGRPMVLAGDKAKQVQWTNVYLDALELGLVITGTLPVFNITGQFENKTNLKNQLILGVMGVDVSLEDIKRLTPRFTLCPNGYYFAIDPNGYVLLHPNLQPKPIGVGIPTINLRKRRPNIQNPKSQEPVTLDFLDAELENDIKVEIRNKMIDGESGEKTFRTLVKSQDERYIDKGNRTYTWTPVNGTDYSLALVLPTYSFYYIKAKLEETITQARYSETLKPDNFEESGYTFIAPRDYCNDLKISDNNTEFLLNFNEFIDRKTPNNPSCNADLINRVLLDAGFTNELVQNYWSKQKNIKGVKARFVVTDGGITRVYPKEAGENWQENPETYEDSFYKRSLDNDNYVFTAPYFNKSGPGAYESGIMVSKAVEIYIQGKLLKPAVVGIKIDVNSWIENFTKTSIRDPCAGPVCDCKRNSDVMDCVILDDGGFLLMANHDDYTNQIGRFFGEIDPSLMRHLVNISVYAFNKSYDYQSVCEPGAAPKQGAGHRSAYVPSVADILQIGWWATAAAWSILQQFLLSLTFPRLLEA
Chain of 3H-diltiazem binding sites in the cardiac tissue (P54289 958-1103 partner limits assumed): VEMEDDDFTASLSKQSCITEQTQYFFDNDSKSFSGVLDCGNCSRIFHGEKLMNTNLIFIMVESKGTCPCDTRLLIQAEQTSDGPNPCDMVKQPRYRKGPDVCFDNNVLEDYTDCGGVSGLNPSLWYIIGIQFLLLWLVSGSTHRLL

## COc1ccc([C@@H]2Sc3ccccc3N(CC(C)CN(C)C)C(=O)[C@@H]2OC(C)=O)cc1.O=C(O)C(=O)O (single isomer, unassigned; diastereoisomer b) [Compound B, Cis(+)-3-acetyloxy-2,3-dihydro-5-(2-methyl-3-dimethylaminopropyl)-2-(4-methoxyphenyl)-1,5-benzothiazepin-4(5H)-one oxalate (diastereoisomer B)]
[1]
  IC50: 30.2 nM
[2]
  Kb: 63.1 nM
[3]
  angina vasopressine test rat (iv) duration: 72 min
  ED50: 0.54 mg/kg
[4]
  half-life: 71 min

## COc1ccc([C@@H]2Sc3ccccc3N(CCN(C)C(C)C)C(=O)[C@@H]2OC(C)=O)cc1 [Compound A, Cis(+)-3-acetyloxy-2,3-dihydro-5-(2-N-isopropyl-N-methylaminoethyl)-2-(4-methoxyphenyl)-1,5-benzothiazepin-4(5H)-one hydrobromide]
[1]
  IC50: 64.6 nM
[2]
  Kb: 50.1 nM
[3]
  angina vasopressine test rat (iv) duration: 78 min
  ED50: 0.49 mg/kg
[4]
  half-life: 92 min

## COc1ccc([C@@H]2Sc3ccccc3N(CCN(C)C)C(=O)[C@@H]2OC(C)=O)cc1 [Diltiazem, reference compound]
[3]
  ED50: 0.45 mg/kg
[4]
  half-life: 57 min
[5]
  elimination half-life: short elimination half-life
